Laboratory results as given in ChEMBL document CHEMBL1158870, “Antitumor agents. 180. Chemical Studies and cytotoxic evaluation of cumingianosides and cumindysoside A, antileukemic triterpene glucosides with a 14,18-cycloapotirucallane skeleton” (1997).

Tests used:
Assay type in all cases: functional
[1] = Cytotoxicity against human Hs 578T cells by SRB assay
[2] = system: MDA-MB-435; assay: Cytotoxicity against human MDA-MB-435 cells by SRB assay
[3] = system: HT-29; assay: Cytotoxicity against human HT29 cells by SRB assay
[4] = Cytotoxicity against human ovarian cancer cells by SRB assay; details: Cancer cell lines
[5] = system: RXF 393; assay: Cytotoxicity against human RXF393 cells by SRB assay
[6] = Cytotoxicity against human renal cancer cells by SRB assay; details: Cancer cell lines
[7] = system: SW-620; assay: Cytotoxicity against human SW620 cells by SRB assay
[8] = Cytotoxicity against human melanoma cells by SRB assay; details: Melanoma cell
[9] = system: MDA-N; assay: Cytotoxicity against human MDA-N cells by SRB assay
[10] = Cytotoxicity against human MCF7/ADR cells by SRB assay; details: NCI/ADR-RES
[11] = Cytotoxicity against human 786-O cells by SRB assay; details: 786-0
[12] = system: OVCAR-3; assay: Cytotoxicity against human OVCAR-3 cells by SRB assay
[13] = system: COLO 205; assay: Cytotoxicity against human COLO205 cells by SRB assay
[14] = system: A549; assay: Cytotoxicity against human A549 cells by SRB assay
[15] = system: NCI-H460; assay: Cytotoxicity against human NCI-H460 cells by SRB assay
[16] = system: K562; assay: Cytotoxicity against human K562 cells by SRB assay
[17] = system: KM12; assay: Cytotoxicity against human KM12 cells by SRB assay
[18] = system: SK-MEL-5; assay: Cytotoxicity against human SK-MEL-5 cells by SRB assay
[19] = system: PC-3; assay: Cytotoxicity against human PC3 cells by SRB assay
[20] = system: BT-549; assay: Cytotoxicity against human BT549 cells by SRB assay
[21] = system: NSCLC; assay: Cytotoxicity against human NSCLC cells by SRB assay
[22] = system: NCI-H522; assay: Cytotoxicity against human NCI-H522 cells by SRB assay
[23] = system: RPMI-8226; assay: Cytotoxicity against human RPMI8226 cells by SRB assay
[24] = system: NCI-H322M; assay: Cytotoxicity against human NCI-H322M cells by SRB assay
[25] = system: ACHN; assay: Cytotoxicity against human ACHN cells by SRB assay
[26] = system: DU-145; assay: Cytotoxicity against human DU145 cells by SRB assay
[27] = system: SK-OV-3; assay: Cytotoxicity against human SKOV3 cells by SRB assay
[28] = system: SF-295; assay: Cytotoxicity against human SF295 cells by SRB assay
[29] = system: EKVX; assay: Cytotoxicity against human EKVX cells by SRB assay
[30] = system: SNB-75; assay: Cytotoxicity against human SNB75 cells by SRB assay
[31] = system: CCRF-CEM; assay: Cytotoxicity against human CCRF-CEM cells by SRB assay
[32] = system: HCT-15; assay: Cytotoxicity against human HCT15 cells by SRB assay

## CC(=O)OC[C@H]1O[C@@H](O[C@@H]2C[C@H]3C(C)(C)[C@H](OC(C)=O)CC[C@]3(C)[C@H]3CC[C@@]45C[C@H](O)C[C@H](C)[C@@H]4CC=C5[C@@]32C)[C@H](O)[C@@H](O)[C@@H]1O
[1]
  GI50: 4.07 µM
[2]
  GI50: 3.72 µM
[3]
  GI50: 1.7 µM
  TGI: 3.3 µM
[4]
  TGI: 13.5 µM
[5]
  GI50: 2.63 µM
[6]
  TGI: 18.8 µM
[7]
  GI50: 4.57 µM
  TGI: 18.1 µM
[8]
  TGI: 14.4 µM
[9]
  GI50: 4.27 µM
[10]
  GI50: 15.1 µM
[11]
  GI50: 4.37 µM
[12]
  GI50: 3.89 µM
[13]
  GI50: 1.82 µM
  TGI: 3.2 µM
[14]
  GI50: 4.79 µM
[15]
  GI50: 3.31 µM
[16]
  GI50: 2.95 µM
[17]
  GI50: 2.4 µM
  TGI: 7.6 µM
[18]
  GI50: 3.89 µM
[19]
  GI50: 3.16 µM
[20]
  GI50: 11 µM
[21]
  TGI: 18.1 µM
[22]
  GI50: 3.09 µM
[23]
  GI50: 2.82 µM
[24]
  GI50: 6.61 µM
[25]
  GI50: 5.13 µM
[26]
  GI50: 10.5 µM
[27]
  GI50: 6.03 µM
[28]
  GI50: 3.89 µM
[29]
  GI50: 7.08 µM
[30]
  GI50: 3.72 µM
[31]
  GI50: 2.14 µM
[32]
  GI50: 8.91 µM
  TGI: 22.3 µM
